# How the values were obtained:
# RPE = assay: Alu RNA-induced RPE degeneration in wild-type mice, inhibitors given intravitreously; assay type: in vivo; details: WT mice; subretinal Alu RNA; inhibitor intravitreous
# Method: Subretinal injection and imaging. Subretinal injections (1 μL) were performed using a Pico-Injector (PLI-100, Harvard Apparatus). Plasmids were transfected in vivo using 10% Neuroporter (Genlantis). Fundus imaging was performed on a TRC-50 IX camera (Topcon) linked to a digital imaging system (Sony). RPE flat mounts were immunolabeled using antibodies against zonula occludens-1 (Invitrogen).
# Retinal photographs of dilated mouse eyes were taken with a TRC-50 IX camera (Topcon) linked to a digital imaging system (Sony).
# Human eyes fixed in 2-4% paraformaldehyde were prepared as eyecups, cryoprotected in 30% sucrose, embedded in optimal cutting temperature compound (Tissue-Tek OCT; Sakura Finetek), and cryosectioned into 10 μm sections. Depigmentation was achieved using 0.25% potassium permanganate and 0.1% oxalic acid. Immunohistochemical staining was performed with the rabbit antibody against NLRP3 (1:100, Sigma Aldrich) or rabbit antibody against Caspase-1 (prediluted, AbCam). Isotype IgG was substituted for the primary antibody to assess the specificity of the staining. Bound antibody was detected with biotin-conjugated secondary antibodies, followed by incubation with ABC reagent and visualized by Vector Blue (Vector Laboratories). Levamisole (Vector Laboratories) was used to block endogenous alkaline phosphatase activity. Slides were washed in PBS, counterstained with neutral red (Fisher Scientific), rinsed with deionized water, air dried, and then mounted in Vectamount (Vector Laboratories). Fluorescent labeling of human tissue was performed with the rabbit antibody against PYCARD (1:50, Clone N-15, Santa Cruz Biotechnology) Immunolabeling was visualized by fluorescently conjugated anti-rabbit secondary antibody (Invitrogen). Tissue autofluorescence was quenched by incubating the sections in 0.3% Sudan black (Fisher Scientific). Sections were mounted in Vectashield with DAPI (Vector Laboratories). Mouse RPE/choroid flat mounts were fixed with 4% paraformaldehyde or 100% methanol, stained with rabbit antibodies against human zonula occludens-1 (1:100, Invitrogen) and visualized with Alexa594 (Invitrogen). All images were obtained using the Leica SP-5 or Zeiss Axio Observer Z1 microscopes.
# Subretinal injections (1 μL) in mice were performed using a Pico-Injector (PLI-100, Harvard Apparatus). In vivo transfection of plasmids coding for two different Alu sequences (pAlu) or empty control vector (pNull) (Bennett et al., 2008; Kaneko et al., 2011; Shaikh et al., 1997) was achieved using 10% Neuroporter (Genlantis). AAV1-BEST1-Cre (Alexander and Hauswirth, 2008) or AAV1-BEST1-GFP were injected at 1.0×10^11 pfu/mL and in vitro transcribed Alu RNA was injected at 0.3 mg/mL.
# (§1) siRNAs formulated in siRNA buffer (20 mM KCL, 0.2 mM MgCl2 in HEPES buffer at pH 7.5; Dharmacon) or phosphate buffered saline (PBS; Sigma-Aldrich); the TLR4 antagonist Ultra Pure Rhodobacter sphaeroides LPS (LPS-RS, InvivoGen), a peptide inhibitor of MyD88 homodimerization IMG-2005 (IMGENEX), control inhibitor (IMGENEX), recombinant IL-18 (Medical & Biological Laboratories), neutralizing rat antibodies against mouse IL-1β (IMGENEX), neutralizing rat antibodies against mouse IL-18 (Medical & Biological Laboratories), isotype control IgGs (R&D Systems or eBioscience as appropriate), Caspase-1 inhibitor Z-WEHD-FMK (R&D Systems), Caspase control inhibitor Z-FA-FMK (R&D Systems), DPI (Enzo Life Sciences), Mito-TEMPO (Enzo Life Sciences), MitoQ and dTPP (both adsorbed to cyclodextrin and provided by M.P. Murphy, MRC Mitochondrial Biology Unit), and gp91ds-tat and scrambled gp91 ds-tat (both Anaspec), were dissolved in phosphate buffered saline (PBS; Sigma-Aldrich) or dimethyl sulfoxide (DMSO; Sigma-Aldrich), and injected into the vitreous humor in a total volume of 1 μL with a 33-gauge Exmire microsyringe (Ito Corporation). […] As a control, Luc siRNA-chol (17+2 nt) was used with identical dosages.
# miRNA = miRNA abundance in Dicer1-depleted mouse RPE cells; assay type: cell-based
# Source text: Total RNA containing miRNAs was polyadenylated and reverse transcribed using universal primer using the All-In-One miRNA q-RT-PCR Detection Kit (GeneCopoeia) according to the manufacturer's specifications using a universal reverse primer in combination with the following forward primers: mouse miR-184 (5′-[…]-3′); mouse miR-221/222 (5′-[…]-3′); mouse miR-320a (5′-[…]-3′), and mouse miR-484 (5′-[…]-3′). miRNA levels were normalized to levels of U6 snRNA (5′-[…]-3′) using the 2^−ΔΔCt method. Detection was achieved by SYBR green qPCR with the following conditions: 95° C. for 10 min followed by 40 cycles of 95° C. for 10 s, 60° C. for 20 s and 72° C. for 20 s. Amplicon specificity was assessed by melt curve analysis and unique bands by agarose gel electrophoresis.
# [1] = tested on: Dicer1 f/f mouse RPE cells; assay: Loss of viability of Dicer1 f/f mouse RPE cells treated with Ad-Cre; assay type: cell-based
# Method: Cells were plated at density of 15×10^3/cm^2 and after 16 h, at approximately 50% confluence, were infected with AdCre or AdNull (Vector Laboratories) with a multiplicity of infection of 1,000.
# IL-18 = IL-18 maturation in RPE cell lysates of wild-type mice (Western blot); assay type: in vivo; details: WT mice, peptide intravitreous
# Method: as §1, with “dosages. […]” for “dosages.”
substance,measurement,setting,value
DRQIKIWFQNRRMKWKKRDVLPGT [MyD88 inhibitory peptide],Alu RNA-induced RPE degeneration,RPE,prevented RPE degeneration
same,miRNA abundance versus control peptide,miRNA,No significant difference
same,loss of cell viability in Dicer1 f/f mouse RPE cells treated with Ad-Cre,[1],rescues
Z-WEHD-FMK,pAlu-induced IL-18 maturation,IL-18,blocked IL-18 maturation
same,pAlu-induced IL-18 maturation,IL-18; listed as Caspase-1 peptide inhibitor,impaired

# — patent US9453226B2, “Protection of cells from Alu-RNA-induced degeneration and inhibitors for protecting cells” (UNIVERSITY OF KENTUCKY RESEARCH FOUNDATION, priority 2011, dated 2016)
